# Reference: paper PMC8509773, “3-Pyridinylidene Derivatives of Chemically Modified Lupane and Ursane Triterpenes as Promising Anticancer Agents by Targeting Apoptosis” (International Journal of Molecular Sciences, 2021)
# How the values were obtained:
# BT-549 = test: NCI-60 SRB screening (one-dose and five-dose); format: cell-based, human; conditions: BT-549, 10 μM, 48 h
# In short: (§1)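 After a 48-h incubation with compound, cellular protein was stained with SRB and growth estimated by spectrophotometry relative to untreated controls.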
# K-562 = test: NCI-60 SRB screening (one-dose and five-dose); format: cell-based, human; conditions: K-562, 10 μM, 48 h
# In short: as §1
# M14 = test: NCI-60 SRB screening (one-dose and five-dose); format: cell-based, human; conditions: M14, 10 μM, 48 h
# In short: as §1
# NCI-H226 = test: NCI-60 SRB screening (one-dose and five-dose); format: cell-based, human; conditions: NCI-H226, 10 μM, 48 h
# In short: (§2)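 Growth inhibition is scored with sulforhodamine B after 48 h of continuous compound exposure. An MG_MID averages each parameter over the whole cell panel, insensitive lines being counted at the top tested concentration.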
# SNB-75 = test: NCI-60 SRB screening (one-dose and five-dose); format: cell-based, human; conditions: SNB-75, 10 μM, 48 h
# In short: as §1
# SK-MEL-28 = test: NCI-60 SRB screening (one-dose and five-dose); format: cell-based, human; conditions: SK-MEL-28, 10 μM, 48 h
# In short: as §1
# SF-268 = test: NCI-60 SRB screening (one-dose and five-dose); format: cell-based, human; conditions: SF-268, 10 μM, 48 h
# In short: as §1
# OVCAR-4 = test: NCI-60 SRB screening (one-dose and five-dose); format: cell-based, human; conditions: OVCAR-4, 10 μM, 48 h
# In short: as §1
# NCI/ADR-RES = test: NCI-60 SRB screening (one-dose and five-dose); format: cell-based, human; conditions: 10 μM, 48 h
# In short: as §2
# UACC-62 = test: NCI-60 SRB screening (one-dose and five-dose); format: cell-based, human; conditions: UACC-62, 10 μM, 48 h
# In short: as §2
# EKVX = test: NCI-60 SRB screening (one-dose and five-dose); format: cell-based, human; conditions: 10 μM, 48 h
# In short: as §2
# HL-60(TB) = test: NCI-60 SRB screening (one-dose and five-dose); format: cell-based, human; conditions: 10 μM, 48 h
# In short: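 Compounds were added at a single concentration and cultures incubated for 48 h. Growth was measured with sulforhodamine B protein staining, read spectrophotometrically and expressed as percent of untreated controls.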
# COLO 205 = test: NCI-60 SRB screening (one-dose and five-dose); format: cell-based, human; conditions: COLO 205, 10 μM, 48 h
# In short: as §2
# NCI-H23 = test: NCI-60 SRB screening (one-dose and five-dose); format: cell-based, human; conditions: NCI-H23, 10 μM, 48 h
# In short: as §1
# KM-12 = test: NCI-60 SRB screening (one-dose and five-dose); format: cell-based, human; conditions: KM-12, 10 μM, 48 h
# In short: as §2
# NCI-H460 = test: NCI-60 SRB screening (one-dose and five-dose); format: cell-based, human; conditions: NCI-H460, 10 μM, 48 h
# In short: as §2
# MCF7 = test: NCI-60 SRB screening (one-dose and five-dose); format: cell-based, human; conditions: MCF7, 10 μM, 48 h
# In short: as §2
# RPMI-8226 = test: NCI-60 SRB screening (one-dose and five-dose); format: cell-based, human; conditions: RPMI-8226, 10 μM, 48 h
# In short: as §2
# PC-3 = test: NCI-60 SRB screening (one-dose and five-dose); format: cell-based, human; conditions: PC-3, 10 μM, 48 h
# In short: as §2
# [1] = system: NCI-60 cancer cell line panel; test: NCI-60 cancer cell line panel screening (whole panel / subpanels); format: cell-based; conditions: single dose 10 µM
# Description: At first, compounds were tested in a single high dose concentration regimen (10 µM) against a panel of sixty various cancer cell lines; the results of the screening are outlined in Table 1 in the form of percent growth (GP %) of treated cells versus untreated cells used as control, where negative numbers indicate cell kill. The experimental results of growth inhibition may range from 0 to 100 and indicate a cytostatic effect while negative values indicate cell death and thus a cytotoxic activity (for NCI data see Supplementary Material Figures S6–S12).
# The selectivity index (SI) was calculated by dividing the full panel MG_MID60 (μM) of tested compounds by their individual subpanel MG_MID of the cell line (μM); it correlates directly to the selectivity of their anticancer activity (Table 3). […] By contrast, despite its strong antiproliferative effect, compound 7 acts with low selectivity against the various human tumor cell lines, the highest SI value being 1.73.
# Compounds 1, 2, and 4–8 were tested at one dose assay (10^−5 M) toward a panel of approximately sixty cancer cell lines representing different cancer types: leukemia, melanoma, lung, colon, CNS, ovarian, renal, prostate, and breast cancers. Primary anticancer assays were performed according to the NCI protocol as described elsewhere (see, e.g., http://dtp.nci.nih.gov accessed on 16 October 2019). The compounds were added at a single concentration and the cell cultures were incubated for 48 h. The end point determinations were made with a protein binding dye, sulforhodamine B (SRB). The results for each compound are reported as the percent growth (GP %) of treated cells compared to untreated control cells (negative numbers indicate cell kill). Compounds with considerable activity against all tested human tumor cell lines (6 and 7) were selected for the advanced assay against a panel of approximately sixty tumor cell lines at 10-fold dilutions of five concentrations (100 µM, 10 µM, 1 µM, 0.1 µM, and 0.01 µM). The percentage of growth was evaluated spectrophotometrically versus controls not treated with test agents after 48-h exposure and using SRB protein assay to estimate cell viability or growth. Three antitumor activity dose–response parameters were calculated for each cell line: GI50—molar concentration of the compound that inhibits 50% net cell growth; TGI—molar concentration of the compound leading to the total inhibition; and LC50—molar concentration of the compound leading to 50% net cell death (presented in negative logarithm). Furthermore, mean graph midpoints (MG_MID) were calculated for each of the parameters, giving an average activity parameter over all cell lines for the tested compound. For the MG_MID calculation, insensitive cell lines were included with the highest concentration tested.
# A498 = test: NCI-60 SRB screening (one-dose and five-dose); format: cell-based, human; conditions: A498, 10 μM, 48 h
# In short: as §1
SMILES,Growth Percent (BT-549) [%],Growth Percent (K-562) [%],Growth Percent (M14) [%],Growth Percent (NCI-H226) [%],Growth Percent (SNB-75) [%],Growth Percent (SK-MEL-28) [%],Growth Percent (SF-268) [%],Growth Percent (OVCAR-4) [%],Growth Percent (NCI/ADR-RES) [%],Growth Percent (UACC-62) [%],Growth Percent (EKVX) [%],Growth Percent (HL-60(TB)) [%],Growth Percent (COLO 205) [%],Growth Percent (NCI-H23) [%],Growth Percent (KM-12) [%],Growth Percent (NCI-H460) [%],Growth Percent (MCF7) [%],Growth Percent (RPMI-8226) [%],Growth Percent (PC-3) [%],Growth Percent (A498) [%],other results
CC(=O)O[C@H]1CC[C@]2(C)[C@H]3CC[C@@H]4[C@H]5[C@H](C)[C@@]6(C)OC[C@]5(CC[C@@]4(C)[C@]3(C)CC[C@H]2C1(C)C)CC6C(C)=O (stereo partly shown) [Compound 1],96.17,39.40,74.76,91.65,106.15,80.73,97.23,75.77,96.25,49.11,91.35,39.32,71.47,84.77,78.19,84.90,56.74,47.53,48.79,–,Antiproliferative / cytotoxic activity in words [1]: completely lacks activity
"CC(=O)[C@H]1C[C@]23CC[C@]4(C)[C@H](CC[C@@H]5[C@@]6(C)CCC(=O)C(C)(C)[C@@H]6CC[C@]54C)[C@H]2[C@H](C)[C@@]1(C)OC3 [Compound 2, 3-oxo-21β-acetyl-20β,28-epoxy-18α,19βH-ursane]",–,103.93,107.08,95.16,72.80,109.33,90.95,85.13,102.89,85.81,71.73,133.26,111.81,90.60,102.54,94.87,90.80,102.14,87.23,67.96,–
C[C@H]1[C@@H]2[C@H]3CC[C@@H]4[C@@]5(C)CC[C@H](O)C(C)(C)[C@@H]5CC[C@@]4(C)[C@]3(C)CC[C@]23CO[C@@]1(C)C(C(=O)/C=C/c1cccnc1)C3 (stereo partly shown) [Compound 4],57.24,17.96,60.79,76.56,72.76,66.23,81.93,49.03,78.87,41.49,101.00,47.50,56.27,59.51,54.39,40.71,23.65,9.55,21.26,72.89,–
"C[C@H]1[C@@H]2[C@H]3CC[C@@H]4[C@@]5(C)CC[C@H](O)C(C)(C)[C@@H]5CC[C@@]4(C)[C@]3(C)CC[C@]23CO[C@@]1(C)[C@@H](C(=O)/C=C/c1ccco1)C3 [Compound 5, 3β-Hydroxy-21-[3-(2E-furyl)-prop-2-en-1-one]-20β,28-epoxy-18α,19βH-ursane]",104.50,–,34.35,99.66,78.39,36.66,96.31,111.19,95.25,7.16,104.96,–,−2.30,98.55,99.96,109.09,101.23,105.93,92.69,96.19,–
"COC(=O)[C@]12CC[C@@H](C(C)=O)[C@@H]1[C@H]1CC[C@@H]3[C@@]4(C)C/C(=C\c5cccnc5)C(=O)C(C)(C)[C@@H]4CC[C@@]3(C)[C@]1(C)CC2 [Compound 8, Methyl 3,20-dioxo-2-(3-pyridinylidene)-29-nor-lup-28-oate]",46.03,18.29,56.69,48.05,110.35,31.54,68.63,26.68,52.54,34.54,85.77,−2.67,82.53,53.20,60.52,70.90,19.18,2.88,24.42,80.56,–
